In the NIST ThermoML archive (doi:10.1016/j.jct.2004.09.021) one finds refractive index, mass density and viscosity data, which are given here for 3 compounds.

Numbers after ± are expanded uncertainties.

A short description of data set [1]: refractive index (Na D-line) (dimensionless). Particulars: 101.33 kPa, Liquid.
The conditions of data set [2]: 101 kPa, Liquid.

On to `CCCCCCCC` [octane], for which the figures for the refractive index in data set [1] (293.15 K), in data set [1] (298.15 K) and in data set [1] (303.15 K) were 1.3965 ± 0.0009, 1.3947 ± 0.0009 and 1.3926 ± 0.0009, respectively. Moreover, the mass density is recorded as 702.61 ± 0.84 kg/m3 in data set [2] (293.15 K), 698.57 ± 0.85 kg/m3 in data set [2] (298.15 K) and 694.56 ± 0.85 kg/m3 in data set [2] (303.15 K). The figures for the viscosity in data set [2] (293.15 K), in data set [2] (298.15 K) and in data set [2] (303.15 K) were 0.5464 ± 0.01 mPa·s, 0.5123 ± 0.0096 mPa·s and 0.483 ± 0.0091 mPa·s, respectively.
For the compound `COc1ccccc1` [anisole], the refractive index is recorded as 1.5161 ± 0.0009 in data set [1] (293.15 K), 1.5141 ± 0.0009 in data set [1] (298.15 K) and 1.5129 ± 0.0009 in data set [1] (303.15 K). The mass density in data set [2] (293.15 K) worked out at 993.81 ± 0.53 kg/m3; in data set [2] (298.15 K) it was 989.15 ± 0.53 kg/m3; in data set [2] (303.15 K), 984.42 ± 0.53 kg/m3. The viscosity in data set [2] (293.15 K) is reported as 1.085 ± 0.018 mPa·s; in data set [2] (298.15 K) it was 1.017 ± 0.017 mPa·s; in data set [2] (303.15 K), 0.9285 ± 0.016 mPa·s.
In the case of `CCCCCCCCC` [nonane], the refractive index in data set [1] (293.15 K) is given as 1.404 ± 0.0009; in data set [1] (298.15 K) it was 1.4027 ± 0.0009; in data set [1] (303.15 K), 1.4002 ± 0.001. Besides, the mass density in data set [2] (293.15 K) came to 717.59 ± 2.9 kg/m3; in data set [2] (298.15 K) it was 713.71 ± 3 kg/m3; in data set [2] (303.15 K) it was 709.81 ± 3 kg/m3. Also, the viscosity in data set [2] (293.15 K) was found to be 0.7136 ± 0.013 mPa·s; in data set [2] (298.15 K), 0.6715 ± 0.012 mPa·s; in data set [2] (303.15 K) it was 0.6307 ± 0.011 mPa·s.
